# Test results: ChEMBL document CHEMBL6182944, “Substrate Specificity of the Organic Cation Transporters MATE1 and MATE2K and Functional Overlap with OCT1 and OCT2” (J Med Chem, 2025)
# How the values were obtained:
# [1] = biological target: T1, Multidrug and toxin extrusion protein 1 (Homo sapiens, UniProt Q96FL8); assay: Substrate activity at MATE1 (unknown origin) expressed in HEK293 cells assessed as Vmax (maximum transport velocity) by HPLC-MS/MS analysis; assay type: cell-based
# T1 sequence (Q96FL8 whole entry): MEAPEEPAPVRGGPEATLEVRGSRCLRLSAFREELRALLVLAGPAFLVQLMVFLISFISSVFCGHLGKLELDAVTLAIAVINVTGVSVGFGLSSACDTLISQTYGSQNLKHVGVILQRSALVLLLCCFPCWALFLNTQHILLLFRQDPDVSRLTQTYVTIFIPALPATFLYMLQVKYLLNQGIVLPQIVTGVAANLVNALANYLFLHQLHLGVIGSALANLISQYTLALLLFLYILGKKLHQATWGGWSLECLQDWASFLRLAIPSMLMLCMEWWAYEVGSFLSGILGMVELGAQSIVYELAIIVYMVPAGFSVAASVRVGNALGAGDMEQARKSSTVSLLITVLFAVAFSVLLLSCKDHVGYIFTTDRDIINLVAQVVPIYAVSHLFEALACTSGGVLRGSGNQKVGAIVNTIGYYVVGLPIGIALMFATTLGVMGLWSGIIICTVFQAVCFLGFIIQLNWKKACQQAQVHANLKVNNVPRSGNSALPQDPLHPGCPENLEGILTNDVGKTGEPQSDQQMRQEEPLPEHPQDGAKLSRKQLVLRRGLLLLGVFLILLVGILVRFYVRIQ
# [2] = biological target: T2, Multidrug and toxin extrusion protein 2 (Homo sapiens, UniProt Q86VL8); assay: Substrate activity at MATE2-K (unknown origin) expressed in HEK293 cells assessed as intrinsic clearance by measuring ratio of Vmax (maximum transport velocity) over Km measured per mg of protein by HPLC-MS/MS analysis; assay type: cell-based
# T2 sequence (Q86VL8 whole entry): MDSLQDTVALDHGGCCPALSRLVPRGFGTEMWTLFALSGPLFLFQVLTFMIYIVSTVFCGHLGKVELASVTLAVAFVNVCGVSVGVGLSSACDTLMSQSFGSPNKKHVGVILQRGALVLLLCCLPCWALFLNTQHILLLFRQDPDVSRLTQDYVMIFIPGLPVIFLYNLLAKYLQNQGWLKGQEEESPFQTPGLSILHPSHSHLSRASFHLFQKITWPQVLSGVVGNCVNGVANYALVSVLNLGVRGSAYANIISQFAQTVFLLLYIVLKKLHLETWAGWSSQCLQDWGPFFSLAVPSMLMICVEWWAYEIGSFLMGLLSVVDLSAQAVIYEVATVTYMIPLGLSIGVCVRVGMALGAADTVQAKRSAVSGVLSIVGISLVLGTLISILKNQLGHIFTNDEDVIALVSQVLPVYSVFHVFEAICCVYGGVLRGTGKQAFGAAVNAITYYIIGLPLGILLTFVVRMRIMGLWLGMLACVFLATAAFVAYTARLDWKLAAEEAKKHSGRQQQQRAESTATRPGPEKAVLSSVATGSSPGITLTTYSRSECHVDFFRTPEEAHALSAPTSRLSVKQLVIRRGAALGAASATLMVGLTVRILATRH
# [3] = biological target: T1, Multidrug and toxin extrusion protein 1; assay: Substrate activity at MATE1 (unknown origin) expressed in HEK293 cells assessed as intrinsic clearance by measuring ratio of Vmax (maximum transport velocity) over Km measured per mg of protein by HPLC-MS/MS analysis; assay type: cell-based
# [4] = biological target: T2, Multidrug and toxin extrusion protein 2; assay: Substrate activity at MATE2-K (unknown origin) expressed in HEK293 cells assessed as Vmax (maximum transport velocity) by HPLC-MS/MS analysis; assay type: cell-based
# [5] = biological target: T2, Multidrug and toxin extrusion protein 2; assay: Substrate activity at MATE2-K (unknown origin) expressed in HEK293 cells assessed as ratio of uptake by the enantiomer with higher value to enantiomer with lower value at 2.5 uM measured after 1 min by HPLC-MS/MS analysis; assay type: cell-based; details: hek293, 1 min
# MATE1 = biological target: T3, MATE1 (Homo sapiens, UniProt Q96FL8); assay: in vitro
# T3 sequence (Q96FL8 whole entry): T1 sequence (Q96FL8 whole entry)
# MATE2-K = biological target: T4, MATE2-K (Homo sapiens, UniProt Q86VL8); assay: in vitro
# T4 sequence (Q86VL8 whole entry): T2 sequence (Q86VL8 whole entry)
# [6] = biological target: T1, Multidrug and toxin extrusion protein 1; assay: Substrate activity at MATE1 (unknown origin) expressed in HEK293 cells assessed as ratio of uptake by the enantiomer with higher value to enantiomer with lower value at 2.5 uM measured after 1 min by HPLC-MS/MS analysis; assay type: cell-based; details: hek293, 1 min
# [7] = biological target: T1, Multidrug and toxin extrusion protein 1; assay: Substrate activity at MATE1 (unknown origin) expressed in HEK293 cells assessed as increase in uptake by HPLC-MS/MS analysis; assay type: cell-based
# [8] = biological target: T2, Multidrug and toxin extrusion protein 2; assay: Substrate activity at MATE2-K (unknown origin) expressed in HEK293 cells assessed as increase in uptake by HPLC-MS/MS analysis; assay type: cell-based
# [9] = HEK293 cells expressing MATE2-K
"uptake ratio at 1 min, 2.5 µM (MATE1; HEK293 cells expressing MATE1)","uptake ratio at 1 min, 2.5 µM (MATE2-K; [9])","uptake ratio at 1 min, 2.5 µM (MATE1; hek293)","uptake ratio at 1 min, 2.5 µM (MATE2-K; hek293)",SMILES,Vmax [1] [pmol/min],CL [2] [µL/min],CL [3] [µL/min],Vmax [4] [pmol/min],Ratio [5],Ratio [6],Activity [7],Activity [8]
,,,,CN(C)CCc1c[nH]c2ccc(CC3COC(=O)N3)cc12 (racemic),2992,32.1,52.4,740,,,,
> 2,> 2,,,CC(C)(C)NCC(O)c1ccc(O)c(CO)c1 (racemic) [ALBUTEROL],,,,,> 1,> 1,,
> 2,> 2,,,CCN1CCCC1CNC(=O)c1cc(S(=O)(=O)CC)c(N)cc1OC (racemic) [AMISULPRIDE],238,17.8,22.4,,> 1,> 1,,
,,< 2,< 2,Cc1cccc(C)c1OCC(C)N (racemic) [MEXILETINE],,,,,> 1,> 1,,
,,,,O=C(O)c1cn(C2CC2)c2cc(N3CCNCC3)c(F)cc2c1=O [CIPROFLOXACIN],,,,,,,Dose-dependent-effect,Dose-dependent-effect
,,,,Nc1ccn([C@@H]2CS[C@H](CO)O2)c(=O)n1 [LAMIVUDINE],,,,,,,Dose-dependent-effect,Dose-dependent-effect
,,> 2,> 2,CC(=O)OC(C)C[N+](C)(C)C (centres undefined) [METHACHOLINE],17843,0.88,8.98,1240,,,,
,,,,NC[C@H](O)c1ccc(O)c(O)c1 [NOREPINEPHRINE],18720,0.59,10,673,,,,
,,,,N=C(N)c1ccc(OCCCCCOc2ccc(C(=N)N)cc2)cc1 [PENTAMIDINE],,,,,,,Dose-dependent-effect,Dose-dependent-effect
,,> 2,> 2,[H]/N=C(/N)N/C(=N/[H])NCCc1ccccc1 [PHENFORMIN],8451,18.6,83.9,1361,,,,
,,> 2,< 2,Cc1ncc(CO)c(CN)c1O [PYRIDOXAMINE],5442,0.64,3.23,989.5,,,,
,,,,Cc1cc2nc3c(=O)[nH]c(=O)nc-3n(C[C@H](O)[C@H](O)[C@H](O)CO)c2cc1C [RIBOFLAVIN],,,,,,,Dose-dependent-effect,Dose-dependent-effect
> 2,> 2,,,COCCn1c2c([n+](Cc3cnccn3)c1C)C(=O)c1ccccc1C2=O [SEPANTRONIUM],304,9.19,3.76,,,,Dose-dependent-effect,Dose-dependent-effect
,,,,CCN1CCCC1CNC(=O)c1cc(S(N)(=O)=O)ccc1OC (centres undefined) [SULPIRIDE],851,44.9,53.2,1025,,,,
,,> 2,> 2,Cc1ncc(C[n+]2csc(CCO)c2C)c(N)n1 [THIAMINE ION],599,6.32,34.9,,,,Dose-dependent-effect,Dose-dependent-effect

SMILES,"uptake ratio at 1 min, 2.5 µM (MATE1; HEK293 cells expressing MATE1)","uptake ratio at 1 min, 2.5 µM (MATE2-K; [9])","uptake ratio at 1 min, 2.5 µM (MATE1; hek293)","uptake ratio at 1 min, 2.5 µM (MATE2-K; hek293)",Vmax [1] [pmol/min],CL [2] [µL/min],CL [3] [µL/min],Vmax [4] [pmol/min],Ratio [5],Ratio [6],Activity [7],Activity [8]
c1c2c(cc3c1OCO3)-c1cc3ccc4c(c3c[n+]1CC2)OCO4 [COPTISINE],> 2,> 2,,,2901,,,,,,Dose-dependent-effect,Dose-dependent-effect
CN[C@@H]1CCc2[nH]c3ccc(C(N)=O)cc3c2C1 [FROVATRIPTAN],,,> 2,> 2,4568,77.8,64.9,869,,,Dose-dependent-effect,Dose-dependent-effect
CN(C)C(=O)Oc1cccc([N+](C)(C)C)c1 [NEOSTIGMINE],> 2,> 2,,,7255,8.14,45.2,,,,Dose-dependent-effect,Dose-dependent-effect
CNC[C@H](O)c1cccc(O)c1 [PHENYLEPHRINE],,,> 2,> 2,11611,1.79,24.5,776,,,,
NCCc1ccc(O)cc1 [TYRAMINE],,,> 2,< 2,5948,2.71,43.6,2868,,,,
